# Results from patent publication US8835631B2, “Therapeutic agent for cerebral infarction” (Mitsubishi Tanabe Pharma Corporation, priority 2007, dated 2014).
# Key:
# [1] = test system: IL-1β; assay: Intracerebral IL-1β production in rat middle cerebral artery occlusion-reperfusion model; type: in vivo, male Wistar rats; conditions: 10 mg/kg intravenously 30 min after occlusion; brain isolated 12 hr after occlusion; ELISA; FIG. 2
# Protocol: (§1) The middle cerebral artery of male Wistar rats (Japan Laboratory animals Inc.) was obstructed with suture (silicon-coated nylon thread), and test compound A (10 mg/kg) dissolved in saline was intravenously administered in 30 min after occlusion, and middle cerebral artery was reperfused in 60 min after administration. In only the rats used for TNF-α measurement, test compound A was administered orally. The brain was isolated at 12 hr after the occlusion (see Koizumi, J. et al., Jpn. J. Stroke, 8, 1-8, 1986). The brain tissue was homogenized, the centrifuged supernatant was collected and cytokine and chemokine were measured by ELISA. Intracerebral TNF-α, IL-1β and IL-6 were measured using an Immunoassay Kit (BIOSOURCE) according to the manufactures' protocol. MCP-1 was measured using an MCP-1 Instant ELISA (Bener MedSystems) according to the manufactures' protocol.
# [2] = test system: TNF-α; assay: TNF-α production in LPS-administered mouse; type: in vivo, male BALB/c mouse
# Protocol: (§2) LPS (lipopolysaccharide, derived from E. coli 0111:B4, Sigma, 500 μg/kg) was intraperitoneally administered to male BALB/c mouse (Charles River Laboratories Japan). After 90 min after LPS administration, the blood was taken under anesthesia, and centrifuged to collect plasma. TNF-α was measured using an Immunoassay Kit (R&D Systems) and IL-10, MCP-1 and IL-6 were measured using an Immunoassay Kit (BIOSOURCE). Test compound A, the compound synthesized in Example 3 (test compound B) and the compound synthesized in Example 7 (test compound C) were dissolved in saline, and the mixture was orally administered at 10 mg/kg 30 min before LPS administration. As shown in the Tables, the effect of each test compound on respective […] cytokines was calculated as the ratio of each cytokine concentration in the blood of the group administered with each test compound to each cytokine concentration in the blood of the group free of administration of each test compound.
# [3] = Evaluation of intracerebral transitivity in rat; type: in vivo, SD(IGS) rats; conditions: for Kp value (ratio of plasma concentration and intracerebral concentration): 30 mg/kg orally
# Protocol: The test compound A dissolved in 0.5% aqueous HPMC solution was orally administered at 30 mg/kg, and test compound B and test compound C dissolved in 0.5% aqueous HPMC solution were each orally administered at 3 mg/kg to SD(IGS) rats (Charles River Laboratories Japan). At 1 hr and 4 hr after the administration of the test compound, blood samples were collected, and the brain (cerebral•cerebellum) was isolated. The plasma concentration and intracerebral concentration of each test compound were measured, and the ratio (Kp value) thereof was calculated, based on which the intracerebral transitivity was evaluated.
# [4] = test system: IL-10; assay: IL-10 production in LPS-administered mouse; type: in vivo, male BALB/c mouse
# Protocol: as §2
# [5] = test system: monkey middle cerebral artery permanent occlusion model; assay: Brain injury volume and neurological deficit in monkey middle cerebral artery permanent occlusion model; type: in vivo, Macaca fascicularis; conditions: for spread of the cerebral infarction region (brain injury volume, MRI FLAIR): 5 mg/kg orally twice a day, FIG. 5
# Protocol: In monkey middle cerebral artery permanent occlusion model, the brain injury volume was measured by MR^1 (FLAIR method) one day and seven days after occlusion. Test compound A (5 mg/kg) dissolved in 0.5% tragacanth was repeatedly administered orally twice a day for 14 days. As for neurological score, the neurological function was evaluated by scoring the consciousness, perception, motility and muscular commands.
# The middle cerebral artery permanent occlusion was conducted according to the method of Furuichi et al. (Furuichi, Y et al., J. Cereb. Blood Flow Metab., 23, 1183-1194, 2003), which is specifically as follows. Macaca fascicularis fasted in advance for 12 hr or longer was anesthetized by intramuscular administration of ketamine hydrochloride (10 mg/kg), anesthetized by intravenous administration of pentobarbital sodium (25 mg/kg) and fixed on an operating table. About 5 mm holes were made near foramen ovale and orbital fissure with a dental drill, dura mater and arachnoid mater were incised, and the middle cerebral artery trunk near the internal carotid artery bifurcation area was exposed. The middle cerebral artery trunk near the internal carotid artery bifurcation area was obstructed by electric coagulation to form cerebral infarction.
# Test compound A was orally administered within 1 hr and 6 hr after middle cerebral artery occlusion and within 30 min after feeding in the morning and evening (twice a day) from the next day for 14 days.
# [6] = test system: TNF-α; assay: Intracerebral TNF-α production in rat middle cerebral artery occlusion-reperfusion model; type: in vivo, male Wistar rats; conditions: 10 mg/kg orally 30 min after occlusion; brain isolated 12 hr after occlusion; ELISA; FIG. 1
# Protocol: as §1
# [7] = test system: rat middle cerebral artery occlusion-reperfusion model; assay: Cerebral infarction volume in rat middle cerebral artery occlusion-reperfusion model; type: in vivo, male Wistar rats; conditions: 10 mg/kg intravenously 30 min after occlusion, reperfusion 90 min after occlusion, brain isolated 24 hr later, TTC stain; FIG. 7
# Protocol: The middle cerebral artery of male Wistar rats (Japan Laboratory Animals Inc.) was obstructed with suture (silicon-coated nylon thread), and saline (Vehicle, n=7), test compound A (10 mg/kg, n=6) dissolved in saline, test compound B ([…], n=7) dissolved in saline, and test compound C (10 mg/kg, n=7) dissolved in saline were each intravenously administered in 30 min after occlusion and the artery was reperfused in 90 min after occlusion. The brain was isolated 24 hr later. A 2 mm brain strip was prepared, and the strip was stained with PBS (pH 7.4, 37° C.) containing 1% 2,3,5-triphenyltetrazolium chloride (TTC, Wako Pure Chemical Industries, Ltd.). The cerebral infarction area was measured by image analysis and the cerebral infarction volume was calculated.
# [8] = test system: MCP-1; assay: Intracerebral MCP-1 production in rat middle cerebral artery occlusion-reperfusion model; type: in vivo, male Wistar rats; conditions: 10 mg/kg intravenously 30 min after occlusion; brain isolated 12 hr after occlusion; ELISA; FIG. 4
# Protocol: as §1
# [9] = test system: IL-6; assay: IL-6 production in LPS-administered mouse; type: in vivo, male BALB/c mouse; conditions: for IL-6 production (%): 10 mg/kg orally 30 min before LPS 500 μg/kg i.p., plasma 90 min after LPS, ratio to group without test compound
# Protocol: as §2
# [10] = test system: MCP-1; assay: MCP-1 production in LPS-administered mouse; type: in vivo, male BALB/c mouse; conditions: for MCP-1 production (%): 10 mg/kg orally 30 min before LPS 500 μg/kg i.p., plasma 90 min after LPS, ratio to group without test compound
# Protocol: as §2
# [11] = test system: IL-6; assay: Intracerebral IL-6 production in rat middle cerebral artery occlusion-reperfusion model; type: in vivo, male Wistar rats; conditions: 10 mg/kg intravenously 30 min after occlusion; brain isolated 12 hr after occlusion; ELISA; FIG. 3
# Protocol: as §1
# [12] = 10 mg/kg orally 30 min before LPS
# [13] = Table 1, 10 mg/kg orally 30 min before LPS 500 μg/kg i.p., plasma 90 min after LPS, ratio to group without test compound
compound,measurement,setting,value
"CC(=O)NC1(c2ccc(CN3CCN(c4ncccn4)CC3)cc2)CC1.Cl [test compound A, N-(1-(4-((4-(pyrimidin-2-yl)piperazin-1-yl)methyl)phenyl)cyclopropyl)acetamide•hydrochloride]",intracerebral IL-1β concentration increased by transient cerebral ischemia,[1],suppressed
same,TNF-α production in LPS model mouse (in words),[2]; [12],suppressed
same,TNF-α production (%),[2]; [13],43.5%
same,Kp value (ratio of plasma concentration and intracerebral concentration),[3]; 1 hr after administration,0.5
same,Kp value (ratio of plasma concentration and intracerebral concentration),[3]; 4 hr after administration,0.5
same,intracerebral transitivity (in words),"[3]; orally, test compound A 30 mg/kg, test compounds B and C 3 mg/kg",intracerebrally transferred
same,IL-10 in LPS model mouse (in words),[4]; [12],increased
same,IL-10 production (%),[4]; [13],397.1%
same,neurological deficit (neurological function score),"[5]; 5 mg/kg orally twice a day for 14 days, FIG. 6",neurological deficit-ameliorating effect
same,"spread of the cerebral infarction region (brain injury volume, MRI FLAIR)",[5]; 1 day after occlusion,suppressive action
same,"spread of the cerebral infarction region (brain injury volume, MRI FLAIR)",[5]; 7 days after occlusion,suppressive action
same,intracerebral TNF-α concentration increased by transient cerebral ischemia,[6],suppressed
same,suppression of cerebral infarction volume,[7],42.5%
same,intracerebral MCP-1 concentration increased by transient cerebral ischemia,[8],suppressed
same,IL-6 production in LPS model mouse (in words),[9]; [12],suppressed
same,IL-6 production (%),[9]; Table 2,74.4%
same,IL-6 production (%),[9]; Table 3,78.4%
same,MCP-1 production in LPS model mouse (in words),[10]; [12],suppressed
same,MCP-1 production (%),[10]; Table 2,61.7%
same,MCP-1 production (%),[10]; Table 3,72.2%
same,intracerebral IL-6 concentration increased by transient cerebral ischemia,[11],suppressed
